Columns and labels:
Type in all cases: cell-based, human
[1] = tested on: VCaP cells; test: VCaP cell proliferation; conditions: 5 days; for Proliferation (% untreated control): VCaP cells
Protocol: After a treatment period of 5 days in complete medium or CSS+1 nM DHT medium, the proliferative capacity of the cancer cells was measured with using CellTiter 96® AQueous One or CellTiter-Glo® Solution Cell Proliferation kit (Promega), following the manufacturer's instructions. […] Treatment with ISIS oligonucleotides in CSS+DHT medium reduced the proliferative capacity to a greater extent than treatment with MVD-3100. The proliferative capacity of cells cultured in CSS medium without DHT is 12% of untreated control levels.

[2] = tested on: TMPRSS2 mRNA; test: TMPRSS2 expression in C4-2 cells; conditions: 48 hrs; for Percent inhibition of TMPRSS2 expression: C4-2 cells, CSS + DHT medium
Protocol: Cells were plated at 1,000 cells per well. […] After an incubation period of 48 hrs, RNA levels of AR, PSA and TMPRSS2 were measured.
Cells were plated at 2,000 cells per well and cultured in CSS media with 1 nM DHT. […] After an incubation period of 48 hrs, RNA levels of AR, PSA and TMPRSS2 were measured.

[3] = tested on: LNCaP cells; test: LNCaP cell proliferation, ASO in combination with MDV3100 (Example 20); conditions: for Proliferation (% untreated control) in LNCaP without MDV-3100: 5 days
Protocol: LNCaP cells were plated at 1,000 cells per well. […] ISIS 549148 was included as a negative control. […] After a treatment period of 5 days, the proliferative capacity of the cancer cells was measured with CellTiter 96® AQueous One or CellTiter-Glo® Solution Cell Proliferation kit (Promega), following the manufacturer's instructions. […]

[4] = tested on: 22RV1 cells; test: 22RV1 apoptosis (Caspase-glo 3/7); conditions: 22RV1 cells, 72 hours
Protocol: After a treatment period of 72 hours in complete medium or CSS+DHT medium, apoptosis of the cancer cells was measured with Caspase-glo 3/7 assay kit (Promega). Results are presented in Tables 131 and 132 as percent apoptosis of the cells, relative to non-treated cells.

## TGATTTAATGGTTGCA [ISIS 569236] (cEt/MOE gapmer chemistry, further chemistry not given here) [targets intron 1]
[1]; CSS + DHT medium, 1.34 nM
  Proliferation (% untreated control): 83 % untreated control
[1]; CSS + DHT medium, 4.0 nM
  Proliferation (% untreated control): 68 % untreated control
[1]; CSS + DHT medium, 13.4 nM
  Proliferation (% untreated control): 61 % untreated control
[1]; CSS + DHT medium, 40 nM
  Proliferation (% untreated control): 45 % untreated control
[1]; complete medium, 1.34 nM
  Proliferation (% untreated control): 98 % untreated control
[1]; complete medium, 4.0 nM
  Proliferation (% untreated control): 76 % untreated control
[1]; complete medium, 13.4 nM
  Proliferation (% untreated control): 68 % untreated control
[1]; complete medium, 40 nM
  Proliferation (% untreated control): 59 % untreated control
[1]; complete medium or CSS+1 nM DHT
  proliferation of VCaP cells: reduced proliferation of the cells in a dose dependent compared to the control
[2]; 0.04 μM
  Percent inhibition of TMPRSS2 expression: 0%
  Percent inhibition of TMPRSS2 expression in C4-2 cells cultured in complete medium: 17%
[2]; 0.2 μM
  Percent inhibition of TMPRSS2 expression: 11%
  Percent inhibition of TMPRSS2 expression in C4-2 cells cultured in complete medium: 54%
[2]; 1 μM
  Percent inhibition of TMPRSS2 expression: 61%
  Percent inhibition of TMPRSS2 expression in C4-2 cells cultured in complete medium: 67%
[2]; 5.0 μM
  Percent inhibition of TMPRSS2 expression: 67%
  Percent inhibition of TMPRSS2 expression in C4-2 cells cultured in complete medium: 67%
[3]; ASO dose 0.04 μM + 0.08 μM MDV-3100
  Proliferation (% untreated control) in LNCaP with 0.08 μM MDV-3100: 74 % untreated control
[3]; ASO dose 0.04 μM + 0.4 μM MDV-3100
  Proliferation (% untreated control) in LNCaP with 0.4 μM MDV-3100: 48 % untreated control
[3]; ASO dose 0.04 μM + 2.0 μM MDV-3100
  Proliferation (% untreated control) in LNCaP with 2.0 μM MDV-3100: 41 % untreated control
[3]; ASO dose 0.04 μM + […] MDV-3100
  Proliferation (% untreated control) in LNCaP with […] MDV-3100: 92 % untreated control
[3]; ASO dose 0.04 μM
  Proliferation (% untreated control) in LNCaP without MDV-3100: 91 % untreated control
[3]; ASO dose 0.08 μM + 0.08 μM MDV-3100
  Proliferation (% untreated control) in LNCaP with 0.08 μM MDV-3100: 98 % untreated control
[3]; ASO dose 0.08 μM + 0.4 μM MDV-3100
  Proliferation (% untreated control) in LNCaP with 0.4 μM MDV-3100: 61 % untreated control
[3]; ASO dose 0.08 μM + 2.0 μM MDV-3100
  Proliferation (% untreated control) in LNCaP with 2.0 μM MDV-3100: 44 % untreated control
[3]; ASO dose 0.08 μM + […] MDV-3100
  Proliferation (% untreated control) in LNCaP with […] MDV-3100: 104 % untreated control
[3]; ASO dose 0.08 μM
  Proliferation (% untreated control) in LNCaP without MDV-3100: 106 % untreated control
[3]; ASO dose 0.2 μM + 0.08 μM MDV-3100
  Proliferation (% untreated control) in LNCaP with 0.08 μM MDV-3100: 51 % untreated control
[3]; ASO dose 0.2 μM + 0.4 μM MDV-3100
  Proliferation (% untreated control) in LNCaP with 0.4 μM MDV-3100: 41 % untreated control
[3]; ASO dose 0.2 μM + 2.0 μM MDV-3100
  Proliferation (% untreated control) in LNCaP with 2.0 μM MDV-3100: 35 % untreated control
[3]; ASO dose 0.2 μM + […] MDV-3100
  Proliferation (% untreated control) in LNCaP with […] MDV-3100: 58 % untreated control
[3]; ASO dose 0.2 μM
  Proliferation (% untreated control) in LNCaP without MDV-3100: 60 % untreated control
[3]; ASO dose 1.0 μM + 0.08 μM MDV-3100
  Proliferation (% untreated control) in LNCaP with 0.08 μM MDV-3100: 31 % untreated control
[3]; ASO dose 1.0 μM + 0.4 μM MDV-3100
  Proliferation (% untreated control) in LNCaP with 0.4 μM MDV-3100: 27 % untreated control
[3]; ASO dose 1.0 μM + 2.0 μM MDV-3100
  Proliferation (% untreated control) in LNCaP with 2.0 μM MDV-3100: 23 % untreated control
[3]; ASO dose 1.0 μM + […] MDV-3100
  Proliferation (% untreated control) in LNCaP with […] MDV-3100: 29 % untreated control
[3]; ASO dose 1.0 μM
  Proliferation (% untreated control) in LNCaP without MDV-3100: 35 % untreated control
[3]; LNCaP cells
  synergy with MDV3100: synergistic with MDV3100
[3]; LNCaP cells, 0.04 μM ASO in combination with 0.08 μM MDV3100
  cell proliferation inhibited, combination: 26%
[3]; LNCaP cells, ASO alone at 0.04 μM
  inhibited cell proliferation, ASO alone: 9%
[4]; CSS + DHT medium, 1.34 nM
  Apoptosis (% untreated control): 127 % untreated control
[4]; CSS + DHT medium, 4.0 nM
  Apoptosis (% untreated control): 106 % untreated control
[4]; CSS + DHT medium, 13.4 nM
  Apoptosis (% untreated control): 257 % untreated control
[4]; CSS + DHT medium, 40 nM
  Apoptosis (% untreated control): 1136 % untreated control
[4]; complete medium, 1.34 nM
  Apoptosis (% untreated control): 91 % untreated control
[4]; complete medium, 4.0 nM
  Apoptosis (% untreated control): 141 % untreated control
[4]; complete medium, 13.4 nM
  Apoptosis (% untreated control): 333 % untreated control

— patent publication USRE48461E1, “Modulation of androgen receptor expression” (Ionis Pharmaceuticals, Inc., priority 2012, dated 2021)
